In PubChem BioAssay (NCI):
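96-well plates; 48 h exposure; 5 concentrations. Endpoints by linear interpolation between flanking doses. Not reached: highest tested concentration assigned. The concentration for full growth arrest is given as TGI.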

Experiments:
Assay in all cases: NCI tumour cell line growth inhibition, 48 h
MDA-MB-231 breast = system: MDA-MB-231 breast
ACHN renal = system: ACHN renal
RXF 393 renal = system: RXF 393 renal
NCI-H226 lung = system: NCI-H226 lung
SNB-75 CNS = system: SNB-75 CNS
OVCAR-8 ovarian = system: OVCAR-8 ovarian
MCF7 breast = system: MCF7 breast
KM12 colon = system: KM12 colon
PC-3 prostate = system: PC-3 prostate
UACC-257 melanoma = system: UACC-257 melanoma
HOP-92 NSCLC = system: HOP-92 NSCLC
HCC-2998 colon = system: HCC-2998 colon
HT29 colon = system: HT29 colon
DU-145 prostate = system: DU-145 prostate
HOP-62 NSCLC = system: HOP-62 NSCLC
CAKI-1 renal = system: CAKI-1 renal
M14 melanoma = system: M14 melanoma
SF-539 CNS = system: SF-539 CNS
HCT-15 colon = system: HCT-15 colon
RPMI-8226 leukemia = system: RPMI-8226 leukemia
IGROV1 ovarian = system: IGROV1 ovarian
SR leukemia = system: SR leukemia
HL-60(TB) leukemia = system: HL-60(TB) leukemia
MALME-3M melanoma = system: MALME-3M melanoma
SK-OV-3 ovarian = system: SK-OV-3 ovarian
MOLT-4 leukemia = system: MOLT-4 leukemia
786-0 renal = system: 786-0 renal
SN12C renal = system: SN12C renal
SK-MEL-28 melanoma = system: SK-MEL-28 melanoma
MDA-N = system: MDA-N
HCT-116 colon = system: HCT-116 colon
OVCAR-4 ovarian = system: OVCAR-4 ovarian
TK-10 renal = system: TK-10 renal
NCI/ADR-RES ovarian = system: NCI/ADR-RES ovarian
T-47D breast = system: T-47D breast
HS 578T breast = system: HS 578T breast
SF-268 CNS = system: SF-268 CNS
UO-31 renal = system: UO-31 renal
SK-MEL-2 melanoma = system: SK-MEL-2 melanoma
NCI-H522 lung = system: NCI-H522 lung
OVCAR-3 ovarian = system: OVCAR-3 ovarian
LOX IMVI melanoma = system: LOX IMVI melanoma
NCI-H460 lung = system: NCI-H460 lung
K-562 leukemia = system: K-562 leukemia
COLO 205 colon = system: COLO 205 colon
UACC-62 melanoma = system: UACC-62 melanoma
A549 NSCLC = system: A549 NSCLC
MDA-MB-435 = system: MDA-MB-435
A498 renal = system: A498 renal
EKVX NSCLC = system: EKVX NSCLC
SK-MEL-5 melanoma = system: SK-MEL-5 melanoma
SF-295 CNS = system: SF-295 CNS
U251 CNS = system: U251 CNS
BT-549 breast = system: BT-549 breast
SNB-19 CNS = system: SNB-19 CNS
SW-620 colon = system: SW-620 colon
OVCAR-5 ovarian = system: OVCAR-5 ovarian
NCI-H23 lung = system: NCI-H23 lung

Compound: Clc1ccc(Cc2nc3cc(Cl)c(Cl)cc3n2CC2CCCN3CCCCC23)cc1 (stereo unspecified)
- TGI (MDA-MB-231 breast): 19.3 µM
- TGI (ACHN renal): 22.2 µM
- TGI (RXF 393 renal): 37.6 µM
- TGI (NCI-H226 lung): 38 µM
- TGI (SNB-75 CNS): 21.6 µM
- TGI (OVCAR-8 ovarian): 26.1 µM
- TGI (MCF7 breast): 28.3 µM
- TGI (KM12 colon): 40 µM
- TGI (PC-3 prostate): 21.1 µM
- TGI (UACC-257 melanoma): 13 µM
- TGI (HOP-92 NSCLC): 24.9 µM
- TGI (HCC-2998 colon): 14.6 µM
- TGI (HT29 colon): 13.1 µM
- TGI (DU-145 prostate): 26.2 µM
- TGI (HOP-62 NSCLC): 40.8 µM
- TGI (CAKI-1 renal): 34.1 µM
- TGI (M14 melanoma): 7.95 µM
- TGI (SF-539 CNS): 22.3 µM
- TGI (HCT-15 colon): 23.3 µM
- TGI (RPMI-8226 leukemia): > 100 µM
- TGI (IGROV1 ovarian): 21 µM
- TGI (SR leukemia): 15.1 µM
- TGI (HL-60(TB) leukemia): 25.4 µM
- TGI (MALME-3M melanoma): 20.9 µM
- TGI (SK-OV-3 ovarian): 32.8 µM
- TGI (MOLT-4 leukemia): > 100 µM
- TGI (786-0 renal): 23.5 µM
- TGI (SN12C renal): 25.4 µM
- TGI (SK-MEL-28 melanoma): 20.8 µM
- TGI (MDA-N): 24.2 µM
- TGI (HCT-116 colon): 21.8 µM
- TGI (OVCAR-4 ovarian): 79.4 µM
- TGI (TK-10 renal): 27.7 µM
- TGI (NCI/ADR-RES ovarian): 27.3 µM
- TGI (T-47D breast): 64.6 µM
- TGI (HS 578T breast): 26.5 µM
- TGI (SF-268 CNS): 22.3 µM
- TGI (UO-31 renal): 1.6 µM
- TGI (SK-MEL-2 melanoma): 29.8 µM
- TGI (NCI-H522 lung): 24.6 µM
- TGI (OVCAR-3 ovarian): 28.5 µM
- TGI (LOX IMVI melanoma): 19.4 µM
- TGI (NCI-H460 lung): 23.2 µM
- TGI (K-562 leukemia): > 100 µM
- TGI (COLO 205 colon): 22.3 µM
- TGI (UACC-62 melanoma): 21.2 µM
- TGI (A549 NSCLC): 26.2 µM
- TGI (MDA-MB-435): 40.4 µM
- TGI (A498 renal): 27.5 µM
- TGI (EKVX NSCLC): 23 µM
- TGI (SK-MEL-5 melanoma): 23.3 µM
- TGI (SF-295 CNS): 29.2 µM
- TGI (U251 CNS): 20.8 µM
- TGI (BT-549 breast): 26.1 µM
- TGI (SNB-19 CNS): 27.1 µM
- TGI (SW-620 colon): 31.3 µM
- TGI (OVCAR-5 ovarian): 26 µM

Compound: N#CCCN(C(=O)Nc1ccc(NC(=O)N(CCC#N)c2ccccc2)cc1)c1ccccc1
- TGI (MDA-MB-231 breast): > 100 µM
- TGI (ACHN renal): > 100 µM
- TGI (RXF 393 renal): > 100 µM
- TGI (NCI-H226 lung): > 100 µM
- TGI (SNB-75 CNS): > 100 µM
- TGI (OVCAR-8 ovarian): > 100 µM
- TGI (MCF7 breast): > 100 µM
- TGI (KM12 colon): > 100 µM
- TGI (PC-3 prostate): > 100 µM
- TGI (HCC-2998 colon): > 100 µM
- TGI (HT29 colon): > 100 µM
- TGI (DU-145 prostate): > 100 µM
- TGI (HOP-62 NSCLC): > 100 µM
- TGI (CAKI-1 renal): > 100 µM
- TGI (M14 melanoma): > 100 µM
- TGI (HCT-15 colon): > 100 µM
- TGI (RPMI-8226 leukemia): > 100 µM
- TGI (IGROV1 ovarian): > 100 µM
- TGI (SR leukemia): > 100 µM
- TGI (HL-60(TB) leukemia): > 100 µM
- TGI (MALME-3M melanoma): > 100 µM
- TGI (SK-OV-3 ovarian): > 100 µM
- TGI (MOLT-4 leukemia): > 100 µM
- TGI (786-0 renal): > 100 µM
- TGI (SN12C renal): > 100 µM
- TGI (SK-MEL-28 melanoma): > 100 µM
- TGI (MDA-N): > 100 µM
- TGI (NCI-H23 lung): > 100 µM
- TGI (HCT-116 colon): > 100 µM
- TGI (OVCAR-4 ovarian): > 100 µM
- TGI (NCI/ADR-RES ovarian): > 100 µM
- TGI (T-47D breast): > 100 µM
- TGI (HS 578T breast): > 100 µM
- TGI (SF-268 CNS): > 100 µM
- TGI (UO-31 renal): > 100 µM
- TGI (SK-MEL-2 melanoma): > 100 µM
- TGI (NCI-H522 lung): > 100 µM
- TGI (OVCAR-3 ovarian): > 100 µM
- TGI (LOX IMVI melanoma): > 100 µM
- TGI (NCI-H460 lung): > 100 µM
- TGI (K-562 leukemia): > 100 µM
- TGI (COLO 205 colon): > 100 µM
- TGI (UACC-62 melanoma): > 100 µM
- TGI (A549 NSCLC): > 100 µM
- TGI (MDA-MB-435): > 100 µM
- TGI (A498 renal): > 100 µM
- TGI (EKVX NSCLC): > 100 µM
- TGI (SK-MEL-5 melanoma): > 100 µM
- TGI (SF-295 CNS): > 100 µM
- TGI (U251 CNS): > 100 µM
- TGI (BT-549 breast): > 100 µM
- TGI (SNB-19 CNS): > 100 µM
- TGI (SW-620 colon): > 100 µM
- TGI (OVCAR-5 ovarian): > 100 µM
